The term EC50 denotes the concentration giving half of the maximal effect.

Structures are written as SMILES. Structures can show the parent of a compound that is named as a salt.

TLR2, sequence (O60603 21-784): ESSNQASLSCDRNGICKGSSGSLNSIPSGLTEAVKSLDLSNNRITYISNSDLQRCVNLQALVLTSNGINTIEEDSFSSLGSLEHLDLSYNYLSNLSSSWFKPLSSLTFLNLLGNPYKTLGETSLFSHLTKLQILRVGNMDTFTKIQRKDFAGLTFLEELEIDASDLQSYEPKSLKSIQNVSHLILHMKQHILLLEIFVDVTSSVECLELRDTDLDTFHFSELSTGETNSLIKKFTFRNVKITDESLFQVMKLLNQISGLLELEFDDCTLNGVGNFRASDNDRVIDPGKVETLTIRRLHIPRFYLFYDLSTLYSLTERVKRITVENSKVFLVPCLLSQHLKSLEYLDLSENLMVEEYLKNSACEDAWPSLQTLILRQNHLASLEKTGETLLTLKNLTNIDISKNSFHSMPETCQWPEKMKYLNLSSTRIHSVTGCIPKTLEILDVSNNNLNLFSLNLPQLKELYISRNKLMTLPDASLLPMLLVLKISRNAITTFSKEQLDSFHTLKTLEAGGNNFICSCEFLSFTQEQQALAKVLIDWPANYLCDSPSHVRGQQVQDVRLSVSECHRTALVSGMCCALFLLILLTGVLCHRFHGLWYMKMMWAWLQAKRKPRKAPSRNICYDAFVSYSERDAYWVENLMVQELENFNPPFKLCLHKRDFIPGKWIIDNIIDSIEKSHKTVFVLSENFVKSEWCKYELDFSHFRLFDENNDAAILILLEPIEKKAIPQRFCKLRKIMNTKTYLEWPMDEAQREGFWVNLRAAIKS

One assay has as its target TLR2 (Homo sapiens, UniProt O60603). Nature of the assay: TLR2 agonist screening assay, HEK-Blue TLR2 reporter cell line (NF-kB-driven SEAP, absorbance at 600 nm). In kind it is cell-based. Also noted: host or cells: HEK-293 (HEK-Blue TLR2 reporter cell line). The settings on record: HEK-Blue TLR2 reporter cells, agonist mode; average of all runs (Table 3). In a few lines: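 HEK-293 cells expressing TLR2 with NF-kB-driven SEAP were plated at 40,000 per well. After 16-24 h, they were treated overnight with diluted agonists in detection medium (1% DMSO final). Absorbance at 600 nm was read, and EC50 values were fitted.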
Take `CCCCCCCCN1CCN(C(=O)c2ccc(C(=O)N3C[C@@H](C(=O)N[C@H]4C[C@@H]4c4ccccc4)[C@H](C(=O)N[C@H]4C[C@@H]4c4ccccc4)C3)cc2)CC1C(=O)NCCCCCC` (stereo partly drawn) [Compound 018, (3S,4S)-1-(4-(3-(hexylcarbamoyl)-4-octylpiperazine-1-carbonyl)benzoyl)-N3,N4-bis((1S,2R)-2-phenylcyclopropyl)pyrrolidine-3,4-dicarboxamide formate]: the EC50 was in the range of 0.351 to 1 µM.

`CCCCCCNC(=O)[C@H](CCNC(=O)c1ccc(C(=O)N2C[C@@H](C(=O)N[C@H]3C[C@@H]3c3ccccc3)[C@H](C(=O)N[C@H]3C[C@@H]3c3ccccc3)C2)cc1)NC(=O)CCCCCC` [Compound 017] gave an EC50 above 1 µM.

The molecule `CCCCCCCCCCCCCCNC(=O)[C@@H]1CN(C(=O)c2ccc(C(=O)N3C[C@@H](C(=O)N[C@H]4C[C@@H]4c4ccccc4)[C@H](C(=O)N[C@H]4C[C@@H]4c4ccccc4)C3)cc2)C[C@H]1O` (racemic) [Compound 045, (3S,4S)-1-(4-((3S*,4R*)-3-hydroxy-4-(tetradecylcarbamoyl)pyrrolidine-1-carbonyl)benzoyl)-N3,N4-bis((1S,2R)-2-phenylcyclopropyl)pyrrolidine-3,4-dicarboxamide] showed an EC50 of 0.351 to 1 µM.

Consider `CCCCCCCCCCCCCCC(=O)NC(C)(C)CNC(=O)c1ccc(C(=O)N2C[C@@H](C(=O)N[C@H]3C[C@@H]3c3ccccc3)[C@H](C(=O)N[C@H]3C[C@@H]3c3ccccc3)C2)cc1` [Compound 012], for which the EC50 was above 1 µM.

With `CCCCCCCC(=O)N1CCN(C(=O)c2ccc(C(=O)N3C[C@@H](C(=O)N[C@H]4C[C@@H]4c4ccccc4)[C@H](C(=O)N[C@H]4C[C@@H]4c4ccccc4)C3)cc2)CC1C(=O)NCCCCCC` (stereo partly drawn) [Compound 019, (3S,4S)-1-(4-(3-(hexylcarbamoyl)-4-octanoylpiperazine-1-carbonyl)benzoyl)-N3,N4-bis((1S,2R)-2-phenylcyclopropyl)pyrrolidine-3,4-dicarboxamide], the EC50 was 0.0001 to 0.05 µM.

In turn, `CCCCCCNC(=O)[C@@H]1CN(C(=O)c2ccc(C(=O)N3C[C@@H](C(=O)N[C@H]4C[C@@H]4c4ccccc4)[C@H](C(=O)N[C@H]4C[C@@H]4c4ccccc4)C3)cc2)C[C@@H]1O` (racemic) [Compound 034, (3S,4S)-1-(4-((3R*,4R*)-3-(hexylcarbamoyl)-4-hydroxypyrrolidine-1-carbonyl)benzoyl)-N3,N4-bis((1S,2R)-2-phenylcyclopropyl)pyrrolidine-3,4-dicarboxamide] gave an EC50 of 0.351 to 1 µM.

Still in this assay, the particulars now being: HEK-Blue TLR2 reporter cells, agonist mode; average of all runs (Table 4).
Regarding `CCCCCCCCCCCCCCNC(=O)C1CC(=O)N(Cc2ccc(C(=O)N3C[C@@H](C(=O)N[C@H]4C[C@@H]4c4ccccc4)[C@H](C(=O)N[C@H]4C[C@@H]4c4ccccc4)C3)cc2)C1` (stereo partly drawn) [Compound 100, (3S,4S)-1-(4-((2-oxo-4-(tetradecylcarbamoyl)pyrrolidin-1-yl)methyl)benzoyl)-N3,N4-bis((1S,2R)-2-phenylcyclopropyl)pyrrolidine-3,4-dicarboxamide], the EC50 was above 1 µM.

The molecule `O=C(N[C@H]1C[C@@H]1c1ccccc1)[C@@H]1CN(C(=O)c2ccc(C(=O)N3C[C@@H](C(=O)N[C@@H]4C[C@H]4c4cccnc4)[C@H](C(=O)N[C@@H]4C[C@H]4c4cccnc4)C3)cc2)C[C@H]1C(=O)N[C@H]1C[C@@H]1c1ccccc1` (single isomer, unassigned) [Compound 095, (3S,4S)-1-(4-((3S,4S)-3,4-bis(((1S*,2R*)-2-(pyridin-3-yl)cyclopropyl)carbamoyl)pyrrolidine-1-carbonyl)benzoyl)-N3,N4-bis((1S,2R)-2-phenylcyclopropyl) pyrrolidine-3,4-dicarboxamide] came in with an EC50 of 0.351 to 1 µM.

With `CCCCCCCC(=O)N1CCCN(S(=O)(=O)c2ccc(C(=O)N3C[C@@H](C(=O)N[C@H]4C[C@@H]4c4ccccc4)[C@H](C(=O)N[C@H]4C[C@@H]4c4ccccc4)C3)cc2)CC1C(=O)NCCCCCC` (single isomer, unassigned) [Compound 202, (3S,4S)-1-(4-(((S*)-3-(hexylcarbamoyl)-4-octanoyl-1,4-diazepan-1-yl)sulfonyl)benzoyl)-N3,N4-bis((1S,2R)-2-phenylcyclopropyl)pyrrolidine-3,4-dicarboxamide], the EC50 lay in the range of 0.051 to 0.35 µM.

`CCCCCCCCCCCCCNC(=O)N[C@H]1CN(C(=O)Nc2ccc(C(=O)N3C[C@@H](C(=O)N[C@H]4C[C@@H]4c4ccccc4)[C@H](C(=O)N[C@H]4C[C@@H]4c4ccccc4)C3)cc2)C[C@@H]1OC` [Compound 238, (3S,4S)-1-(4-((3S,4S)-3-methoxy-4-(3-tridecylureido)pyrrolidine-1-carboxamido)benzoyl)-N3,N4-bis((1S,2R)-2-phenylcyclopropyl)pyrrolidine-3,4-dicarboxamide] came in with an EC50 of 0.351 to 1 µM.

Regarding `CCCCCCNC(=O)[C@@H](CCNC(=O)c1ccc(C(=O)N2C[C@@H](C(=O)N[C@H]3C[C@@H]3c3ccccc3)[C@H](C(=O)N[C@H]3C[C@@H]3c3ccccc3)C2)cc1)NC(=O)CCCCCC` [Compound 120, (3S,4S)-1-(4-(((R)-3-heptanamido-4-(hexylamino)-4-oxobutyl)carbamoyl)benzoyl)-N3,N4-bis((1S,2R)-2-phenylcyclopropyl)pyrrolidine-3,4-dicarboxamide], the EC50 is above 1 µM.

On to `CCCCCCNC(=O)[C@@H](CCNC(=O)CCCCCC)NC(=O)c1ccc(C(=O)N2C[C@@H](C(=O)N[C@H]3C[C@@H]3c3ccccc3)[C@H](C(=O)N[C@H]3C[C@@H]3c3ccccc3)C2)cc1` [Compound 119, (3S,4S)-1-(4-(((R)-4-heptanamido-1-(hexylamino)-1-oxobutan-2-yl)carbamoyl)benzoyl)-N3,N4-bis((1S,2R)-2-phenylcyclopropyl)pyrrolidine-3,4-dicarboxamide], for which the half-maximal effective concentration (EC50) is above 1 µM.

The molecule `CCCNC(=O)[C@@H]1CN(C(=O)c2ccc(C(=O)N3C[C@@H](C(=O)N[C@H]4C[C@@H]4c4ccccc4)[C@H](C(=O)N[C@H]4C[C@@H]4c4ccccc4)C3)cc2)CCN1C(C)=O` [Compound 265, (3S,4S)-1-(4-((S)-4-acetyl-3-(propylcarbamoyl)piperazine-1-carbonyl)benzoyl)-N3,N4-bis((1S,2R)-2-phenylcyclopropyl) pyrrolidine-3,4-dicarboxamide] had an EC50 above 1 µM.

For the molecule `CCCCCCCCCC(=O)N[C@@H](CN1Cc2ccc(C(=O)N3C[C@@H](C(=O)N[C@H]4C[C@@H]4c4ccccc4)[C@H](C(=O)N[C@H]4C[C@@H]4c4ccccc4)C3)cc2C1=O)C(=O)NCCCCCC` [Compound 241, (3S,4S)-1-(2-((S)-2-decanamido-3-(hexylamino)-3-oxopropyl)-3-oxoisoindoline-5-carbonyl)-N3,N4-bis((1S,2R)-2-phenylcyclopropyl)pyrrolidine-3,4-dicarboxamide], the EC50 was in the range of 0.051 to 0.35 µM.

Molecule `CCCCCCCC(=O)N1CCN(S(=O)(=O)c2cccc(C(=O)N3C[C@@H](C(=O)N[C@H]4C[C@@H]4c4ccccc4)[C@H](C(=O)N[C@H]4C[C@@H]4c4ccccc4)C3)c2)C[C@H]1C(=O)NCCCCCC` [Compound 170, (3S,4S)-1-(3-(((S)-3-(hexylcarbamoyl)-4-octanoylpiperazin-1-yl)sulfonyl)benzoyl)-N3,N4-bis((1S,2R)-2-phenylcyclopropyl)pyrrolidine-3,4-dicarboxamide] returned an EC50 above 1 µM.

`CCCCCCCCCCCCCCOC(=O)N[C@H]1CN(C(=O)c2ccc(C(=O)N3C[C@@H](C(=O)N[C@H]4C[C@@H]4c4ccccc4)[C@H](C(=O)N[C@H]4C[C@@H]4c4ccccc4)C3)cc2)C[C@@H]1OC` [Compound 218, Tetradecyl ((3S,4S)-1-(4-((3S,4S)-3,4-bis(((1S,2R)-2-phenylcyclopropyl)carbamoyl)pyrrolidine-1-carbonyl)benzoyl)-4-methoxypyrrolidin-3-yl)carbamate] gave an EC50 of 0.351 to 1 µM.

Take `CCCCCCCCCC(=O)N[C@@H](Cc1nnc(-c2ccc(C(=O)N3C[C@@H](C(=O)N[C@H]4C[C@@H]4c4ccccc4)[C@H](C(=O)N[C@H]4C[C@@H]4c4ccccc4)C3)cc2)o1)C(=O)NCCCCCC` [Compound 259, (3S,4S)-1-(4-(5-((S)-2-decanamido-3-(hexylamino)-3-oxopropyl)-1,3,4-oxadiazol-2-yl)benzoyl)-N3,N4-bis((1S,2R)-2-phenylcyclopropyl)pyrrolidine-3,4-dicarboxamide]: the EC50 fell in the range of 0.351 to 1 µM.

Molecule `CCCCCCNC(=O)[C@H](CNC(=O)c1ccc(C(=O)N2C[C@@H](C(=O)N[C@H]3C[C@@H]3c3ccccc3)[C@H](C(=O)N[C@H]3C[C@@H]3c3ccccc3)C2)cc1)NC(=O)CCCC` [Compound 130, (3S,4S)-1-(4-(((S)-3-(hexylamino)-3-oxo-2-pentanamidopropyl)carbamoyl)benzoyl)-N3,N4-bis((1S,2R)-2-phenylcyclopropyl)pyrrolidine-3,4-dicarboxamide] displayed an EC50 of 0.351 to 1 µM.

Molecule `CCCCCCCCNC(=O)[C@H](CNC(=O)c1ccc(C(=O)N2C[C@@H](C(=O)N[C@H]3C[C@@H]3c3ccccc3)[C@H](C(=O)N[C@H]3C[C@@H]3c3ccccc3)C2)cc1)NC(=O)CCCCCC` [Compound 141, (3S,4S)-1-(4-(((S)-2-heptanamido-3-(octylamino)-3-oxopropyl)carbamoyl)benzoyl)-N3,N4-bis((1S,2R)-2-phenylcyclopropyl)pyrrolidine-3,4-dicarboxamide] came in with an EC50 of 0.0001 to 0.05 µM.

As for `CCCCCCCCCCCCCCNC(=O)[C@@H]1CN(C(=O)c2ccc(C(=O)N3C[C@@H](C(=O)N[C@H]4C[C@@H]4c4ccccc4)[C@H](C(=O)N[C@H]4C[C@@H]4c4ccccc4)C3)cc2)C[C@H]1N(C)[C@H](C)c1ccccc1` [Compound 090, (3S,4S)-1-(4-((3S,4R)-3-(methyl((R)-1-phenylethyl)amino)-4-(tetradecylcarbamoyl)pyrrolidine-1-carbonyl)benzoyl)-N3,N4-bis((1S,2R)-2-phenylcyclopropyl)pyrrolidine-3,4-dicarboxamide], the EC50 is above 1 µM.

The values above are taken from patent US11951094B2, “TLR2 modulator compounds, pharmaceutical compositions and uses thereof” (Axial Therapeutics, Inc., priority 2020, dated 2024).
